Tests used:
[1] = tested on: 12 human cancer cell lines; assay: MTT assay, panel of cancer cell lines; type: cell-based; conditions: all tested 12 human cancer cell lines; read-out: IC50 proliferation, range over cell lines
Experimental: (§1) The MTT assay was performed as described. In brief, cells were seeded at 3000~5000 cells/well into 96-well plates (200 μL/well) and incubated overnight. We replaced the growth medium with fresh medium containing T521 at several concentrations (two-fold dilutions and the initial concentration is 50 μM, 10 reactions total). After further incubation for 48 hrs in the presence of T521, the medium was removed from all wells and the cells were incubated with 200 μL of fresh medium for additional 24 hrs. We then added 22 μL of MTT solution (Amresco; 5 mg/mL in PBS) to each well and incubated the plate for 4 hrs at 37°C. After removing the medium, we dissolved the purple MTT-formazan crystals by adding 150 μL of DMSO to each well and recorded absorbance at 560 nm by Envision Multilabel Reader (PerkinElmer). The inhibition curve was plotted to determine the IC50 of various cell lines using GraphPad Prism5.0.

MG63 = assay: MTT assay; type: cell-based; conditions: Homo sapiens, MG-63; MG63, Bone, tumor; read-out: IC50 proliferation
Experimental: as §1

HeLa = assay: MTT assay; type: cell-based; conditions: Homo sapiens, Cervix, tumor, read-out: IC50 proliferation
Experimental: as §1

Bel7402 = assay: MTT assay; type: cell-based; conditions: Homo sapiens, Bel-7402; Bel7402, Liver, tumor; read-out: IC50 proliferation
Experimental: as §1

HEK-293 = assay: MTT assay; type: cell-based; conditions: Homo sapiens, HEK293; HEK-293, Kidney, normal; read-out: IC50 proliferation
Experimental: as §1

PC3 = assay: MTT assay; type: cell-based; conditions: Homo sapiens, PC-3; PC3, Prostate, tumor; read-out: IC50 proliferation
Experimental: as §1

L02 = assay: MTT assay; type: cell-based; conditions: Homo sapiens; L02, Liver, normal; read-out: IC50 proliferation
Experimental: as §1

HT29 = assay: MTT assay; type: cell-based; conditions: Homo sapiens, HT-29; HT29, Colon, tumor; read-out: IC50 proliferation
Experimental: as §1

SH-SY5Y = assay: MTT assay; type: cell-based; conditions: Homo sapiens, Brain, tumor, read-out: IC50 proliferation
Experimental: as §1

SaOS-2 = assay: MTT assay; type: cell-based; conditions: Homo sapiens; SaOS-2, Bone, tumor; read-out: IC50 proliferation
Experimental: as §1

A549 = assay: MTT assay; type: cell-based; conditions: Homo sapiens; A549, Lung, tumor; read-out: IC50 proliferation
Experimental: as §1

HepG2 = assay: MTT assay; type: cell-based; conditions: Homo sapiens; HepG2, Liver, tumor; read-out: IC50 proliferation
Experimental: as §1

[2] = Body weight of xenografted nude mice (tolerability); type: in vivo; conditions: intratumoral injection 50 and 100 mg/kg, 5 weeks, vs control
Experimental: Female athymic nude mice were injected with 2.0 × 10^7 A549 lung-carcinoma cells subcutaneously. After 14~20 days, when the tumor volumes reached 100~150 mm^3, animals were divided into treatment (T521; 50, 100 mg/kg) and control (DMSO) groups with ten mice in each group. T521 (0.2 g/mL) dissolved in DMSO was administered alone and mice were treated with T521 by intratumoral injection at the different injection points according to indicated dose on Wednesdays and Fridays for 5 weeks. Tumor volumes were determined with a caliper on Monday and Thursday during drug administration cycle. Tumor volume (mm^3) was calculated using the following equation: V=L×S^2×π/6, where L is the length and S is width of the tumor. The body weight of these mice was determined as an indicator of tolerability on the same days. Student's t-tests were performed for statistical evaluation among treatment and control groups. All mice were properly treated in accordance with the guidelines of the local animal committee.

Plk2 PBD = target: T1, Plk2 PBD (Homo sapiens, UniProt Q9NYY3); assay: Fluorescence polarization assay, Plk2 PBD / FITC-labeled phosphopeptide; type: binding
T1 construct: (326-603 aa), Plk2 (355-685 aa), and Plk3 (335-646 aa); GST (N); made in house; host or cells: E. coli Rosetta BL21(DE3)
T1 sequence (Q9NYY3 355-685): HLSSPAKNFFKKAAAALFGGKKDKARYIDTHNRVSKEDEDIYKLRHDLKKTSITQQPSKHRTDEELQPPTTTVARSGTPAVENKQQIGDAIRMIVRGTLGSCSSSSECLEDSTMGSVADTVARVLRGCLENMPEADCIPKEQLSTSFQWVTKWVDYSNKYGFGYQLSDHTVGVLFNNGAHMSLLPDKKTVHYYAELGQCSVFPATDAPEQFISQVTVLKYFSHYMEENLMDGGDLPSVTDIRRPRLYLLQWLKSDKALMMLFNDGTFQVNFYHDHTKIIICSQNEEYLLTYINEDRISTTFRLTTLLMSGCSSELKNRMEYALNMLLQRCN
Experimental: FP assay was performed as follow. Briefly, 30 μL Plk1 PBD proteins (400 nM) were incubated with 0.3 μL tested compounds (1 mg/mL) with shaking for 1 hr at room temperature (RT) prior to addition of 30 μL FITC-Poloboxtide (FITC-GPMQSpTPLNG-OH; λex/λem: 485/535 nm; 60 nM) in FP buffer (50 mM Tris-HCl, 10 mM NaCl, 1 mM EDTA pH8.0). Three wells containing 30 μL FITC-Poloboxtide (60 nM) and 30 μL Plk1 PBD (400 nM) were used as negative control (0% inhibition); three wells containing 60 μL FITC-Poloboxtide (30 nM) only were used as positive control (100% inhibition). Fluorescence polarization was analyzed after incubation of FITC-Poloboxtide for 15 min in a 384-well black opaque microplate (Cat# 6007270, PerkinElmer) using Envision Multilabel Reader (PerkinElmer) at 25°C. We calculated the percentage of inhibition for each sample as follows: Inhibition(%)=Negative−Sample/Negative−Positive×100%
We plotted the inhibition values and determined IC50 using GraphPad Prism5.0. Together with the FITC-labeled peptides used for Plk1 PBD as mentioned above, the following peptides were used for specificity assays, FITC-GPMQTSpTPKNG-OH (Plk2 PBD), FITC-GPLATSpTPKNG-OH (Plk3 PBD). As described above for the FP assay, proteins were used at the following final concentrations: Plk1 PBD, 200 nM; Plk2 PBD, 450 nM; Plk3 PBD, 600 nM. All FITC-labeled peptides were chemically synthesized (China Peptides Co., Ltd., Shanghai) and further verified by mass spectrometry, and the purity is more than 95.0%.

Q: With CCS(=O)(=O)c1oc(-c2ccc(F)cc2)nc1S(=O)(=O)c1ccccc1 [T521, 5-(ethylsulfonyl)-2-(4-fluorophenyl)-4-(phenylsulfonyl) oxazole] as the compound, how does the IC50 [1] read?
A: 1 to 5 µM

Q: And the IC50 (MG63)?
A: 6.25 µM

Q: What about the IC50 (HeLa) of the same compound?
A: 4.43 µM

Q: And the IC50 (Bel7402)?
A: 5.13 µM

Q: What about the IC50 (HEK-293) of the same compound?
A: 8.66 µM

Q: What about the IC50 (PC3) of the same compound?
A: 1.09 µM

Q: And the IC50 (L02)?
A: 7.11 µM

Q: And the IC50 (HT29)?
A: 3.86 µM

Q: What about the IC50 (SH-SY5Y) of the same compound?
A: 1.37 µM

Q: And the IC50 (SaOS-2)?
A: 1.56 µM

Q: And the IC50 (A549)?
A: 3.56 µM

Q: What about the IC50 (HepG2) of the same compound?
A: 3.17 µM

Q: And the “tolerability by body weight” value [2]?
A: well tolerated

Q: And the IC50 (Plk2 PBD; FP assay, 1 hr preincubation at RT, read-out: Apparent IC50)?
A: > 500 µM

Q: What about the “inhibition of binding of PBD to FITC-labeled phosphopeptide” value (Plk2 PBD; concentration as high as 500 μM) of the same compound?
A: little inhibition
